Marks after values point to notes of the source that are not given here.
Experiments:
[1] = test system: maximal electroshock (MES) induced seizure; test: 5-day chronic treatment tolerance study (MES test); assay type: in vivo; details: rats
Experimental: Compound C, i.e., N-acetyl-D, L-phenylglycine N-benzylamide was subjected to 5-day chronic treatment on anticonvulsant activity (maximal electroshock). 3 groups of 8 animals each were treated as follows. One group was given the MES ED50 of the test drug for 5 days; the second group was given the requisite volume of the vehicle (0.04 ml/10 g body wt.) for 4 days and a single dose (MES ED50) of the test drug on day 5; and the third group was given the requisite volume of the vehicle daily for 5 days. At the time of peak effect of the candidate substance on day 5, all groups were subjected to the MES test and the number of animals protected recorded. Seizure components of the unprotected animals were timed to the nearest 10th of a second and the extensor/flexor (E/F) ratio, S.E., and p value determined. Since extensor duration decreases and flexor duration increases as a maximal seizure is attenuated, the E/F ratio provides a measure of seizure severity.

[2] = test system: Crl:CoBs CD(SD) rats; test: thirty-day dose range finding study of Compound A in rats; details: for BR - BRAIN W/STEM organ to terminal body weight ratio mean / HT - HEART organ to terminal body weight ratio mean / KD - KIDNEY organ to terminal body weight ratio mean / LI - LIVER organ to terminal body weight ratio mean / SP - SPLEEN organ to terminal body weight ratio mean / dilated pelves of kidneys, number of animals / TP - TESTIS/EPIDID organ to terminal body weight ratio mean: 30 days oral
Experimental: More specifically, 50 male and 50 female Crl:CoBs® CD(SD) selected from 68 male and 68 female rats (4 weeks old) were used as test animals in the study 1. The rats were housed individually in elevated wire mesh cages with food (Purina Certified Rodent Chow® 5002) and tap water (via an automated watering system) available ad libitum. Each batch of feed utilized was analyzed by the manufacturer for concentrations of specified heavy metals, aflatoxin, chlorinated hydrocarbons, organophosphates, and specified nutrients.
An artificial light cycle of 12 hours light and 12 hours dark was maintained.
The rats were selected for use on the study using a computer-generated weight randomization procedure and assigned to the following groups:
Following randomization, the rats were identified with an ear tag bearing a unique permanent identification number. The rats were randomly assigned to treatment groups by first eliminating the ones with extreme body weights (±2 standard deviations from the mean body weight).
The desired amount of carboxymethyl cellulose was weighed on an appropriate (milligram) balance, transferred to a precalibrated beaker containing two-thirds of the total value of distilled water, and stirred on a magnetic stirrer until a solution formed. Distilled water was then added to final volume and stirred to achieve a 0.5% w/v solution.
Compound A was first ground into a powder. The desired amount for each dose level as weighed on an appropriate (milligram) balance and transferred into a precalibrated beaker. A small amount (0.5 to 4ml) of 0.5% carboxymethyl cellulose was added to Compound A and mixed to form a paste. […] Fresh suspensions of Compound A were prepared daily and fresh solutions of 0.5% carboxymethyl cellulose were prepared weekly and stored refrigerated.
Each rat received Compound A at a dosage factor of 10 milliliters per kilogram of body weight via gavage between 9 a.m. and noon each day. The dosing volume for each rat was calculated and adjusted weekly by the computer from the most recently recorded individual body weight.
Compound A was administered orally.
All rats were observed twice daily for mortality and moribundity. Clinical observations were made prior to dosing and at 1 and 4 hours after dosing. All signs were recorded as they were observed. Individual body weights were recorded at initiation of treatment, at weekly intervals, and at termination while food consumption was recorded weekly.
Following 30 or 31 days of treatment, surviving rats were weighed, anesthetized, and exsanguinated under sodium pentobarbital anesthesia. Complete necropsies were performed on each rat by appropriately trained personnel using procedures approved by board-certified pathologists. Necropsy included examination of the following:
Various organs were weighted and compared to the control, e.g., brain with stem, heart, spleen, kidney, liver, sex organs.

[3] = test system: liver; details: rats, p.o., short term
[4] = female, group 5, 1000 mg/kg/day

With `CC(=O)NC(C)C(=O)NCc1ccccc1` (racemic) [compound 1, N-Acetyl-D,L-alanine-N′-benzylamide] the “tolerance to the anticonvulsant effects (MES Test)” value ([1]; 5 daily doses of 48 mg/kg) was “does not induce tolerance”, the “animals protected, MES test” value ([1]; chronically treated group, 5 daily doses of 48 mg/kg) was 3/8 and the “animals protected, MES test” value ([1]; single dose acute control group, MES ED50 (48 mg/kg)) was 4/8. The mean kidney weight ([2]; Group 5 males (1000 mg/kg/day × 30 days)) was “small increase”, the “BR - BRAIN W/STEM organ to terminal body weight ratio mean” value (“BR … to terminal body weight ratio mean” for short) ([2]; female, group 2, 30 mg/kg/day) was “.887%” and the “HT - HEART organ to terminal body weight ratio mean” value ([2]; female, group 2, 30 mg/kg/day) was “.372%”. For the same compound, the “KD - KIDNEY organ to terminal body weight ratio mean” value ([2]; female, group 2, 30 mg/kg/day) was “.773%”, the “LI - LIVER organ to terminal body weight ratio mean” value ([2]; female, group 2, 30 mg/kg/day) was 3.122% and the “SP - SPLEEN organ to terminal body weight ratio mean” value ([2]; female, group 2, 30 mg/kg/day) was “.204%”. For the same compound, the “BR … to terminal body weight ratio mean” value ([2]; female, group 3, 100 mg/kg/day) was “.899%”, the “HT - HEART organ to terminal body weight ratio mean” value ([2]; female, group 3, 100 mg/kg/day) was “.345%” and the “KD - KIDNEY organ to terminal body weight ratio mean” value ([2]; female, group 3, 100 mg/kg/day) was “.768%”. The “LI - LIVER organ to terminal body weight ratio mean” value ([2]; female, group 3, 100 mg/kg/day) was 3.166%, the “SP - SPLEEN organ to terminal body weight ratio mean” value ([2]; female, group 3, 100 mg/kg/day) was “.200%” and the “BR … to terminal body weight ratio mean” value ([2]; female, group 4, 300 mg/kg/day) was “.934%”. For the same compound, the “HT - HEART organ to terminal body weight ratio mean” value ([2]; female, group 4, 300 mg/kg/day) was “.373%”, the “KD - KIDNEY organ to terminal body weight ratio mean” value ([2]; female, group 4, 300 mg/kg/day) was “.770%” and the “LI - LIVER organ to terminal body weight ratio mean” value ([2]; female, group 4, 300 mg/kg/day) was 3.172%. For the same compound, the “SP - SPLEEN organ to terminal body weight ratio mean” value ([2]; female, group 4, 300 mg/kg/day) was “.198%”, the “BR … to terminal body weight ratio mean” value [2, 4] was “.891%” and the “HT - HEART organ to terminal body weight ratio mean” value [2, 4] was “.347%”. For the same compound, the “KD - KIDNEY organ to terminal body weight ratio mean” value [2, 4] was “.763%”, the “LI - LIVER organ to terminal body weight ratio mean” value [2, 4] was 3.739* % and the “SP - SPLEEN organ to terminal body weight ratio mean” value [2, 4] was “.189%”. The “dilated pelves of kidneys, number of animals” value (from here on “dilated pelves of kidneys”) ([2]; females, Group 5 (1000 mg/kg/day)) was “two”, the “BR … to terminal body weight ratio mean” value ([2]; male, group 2, 30 mg/kg/day) was “.593%” and the “HT - HEART organ to terminal body weight ratio mean” value ([2]; male, group 2, 30 mg/kg/day) was “.313%”. For the same compound, the “KD - KIDNEY organ to terminal body weight ratio mean” value ([2]; male, group 2, 30 mg/kg/day) was “.719%”, the “LI - LIVER organ to terminal body weight ratio mean” value ([2]; male, group 2, 30 mg/kg/day) was 2.849% and the “SP - SPLEEN organ to terminal body weight ratio mean” value ([2]; male, group 2, 30 mg/kg/day) was “.172%”. For the same compound, the “TP - TESTIS/EPIDID organ to terminal body weight ratio mean” value ([2]; male, group 2, 30 mg/kg/day) was 1.265%, the “BR … to terminal body weight ratio mean” value ([2]; male, group 3, 100 mg/kg/day) was “.599%” and the “HT - HEART organ to terminal body weight ratio mean” value ([2]; male, group 3, 100 mg/kg/day) was “.314%”. For the same compound, the “KD - KIDNEY organ to terminal body weight ratio mean” value ([2]; male, group 3, 100 mg/kg/day) was “.694%”, the “LI - LIVER organ to terminal body weight ratio mean” value ([2]; male, group 3, 100 mg/kg/day) was 3.059* % and the “SP - SPLEEN organ to terminal body weight ratio mean” value ([2]; male, group 3, 100 mg/kg/day) was “.166%”. The “TP - TESTIS/EPIDID organ to terminal body weight ratio mean” value ([2]; male, group 3, 100 mg/kg/day) was 1.219%, the “dilated pelves of kidneys” value ([2]; male, group 3, 100 mg/kg/day) was “one” and the “BR … to terminal body weight ratio mean” value ([2]; male, group 4, 300 mg/kg/day) was “.581%”. For the same compound, the “HT - HEART organ to terminal body weight ratio mean” value ([2]; male, group 4, 300 mg/kg/day) was “.328%”, the “KD - KIDNEY organ to terminal body weight ratio mean” value ([2]; male, group 4, 300 mg/kg/day) was “.695%” and the “LI - LIVER organ to terminal body weight ratio mean” value ([2]; male, group 4, 300 mg/kg/day) was 3.101* %. For the same compound, the “SP - SPLEEN organ to terminal body weight ratio mean” value ([2]; male, group 4, 300 mg/kg/day) was “.163%”, the “TP - TESTIS/EPIDID organ to terminal body weight ratio mean” value ([2]; male, group 4, 300 mg/kg/day) was 1.212% and the “dilated pelves of kidneys” value ([2]; male, group 4, 300 mg/kg/day) was “one”. The “BR … to terminal body weight ratio mean” value ([2]; male, group 5, 1000 mg/kg/day) was “.571%”, the “HT - HEART organ to terminal body weight ratio mean” value ([2]; male, group 5, 1000 mg/kg/day) was “.343%” and the “KD - KIDNEY organ to terminal body weight ratio mean” value ([2]; male, group 5, 1000 mg/kg/day) was “.770%”. For the same compound, the “LI - LIVER organ to terminal body weight ratio mean” value ([2]; male, group 5, 1000 mg/kg/day) was 3.683* %, the “SP - SPLEEN organ to terminal body weight ratio mean” value ([2]; male, group 5, 1000 mg/kg/day) was “.176%” and the “TP - TESTIS/EPIDID organ to terminal body weight ratio mean” value ([2]; male, group 5, 1000 mg/kg/day) was 1.202%. For the same compound, the mean liver weight ([2]; males of Groups 4 (300 mg/kg/day × 30 days) and 5 (1000 mg/kg/day × 30 days), Group 5 females) was “increased”, the “dilated pelves of kidneys” value ([2]; males, Group 5 (1000 mg/kg/day)) was “three” and the “Safety Ratio daily dose; MES” value ([2]; rat, oral, 100 mg/kg/day × 30 days vs oral MES ED50) was 2.1. For the same compound, the “safety ratio, dose to signs of liver enlargement following 30 days medication relative to oral anti-convulsant dose” value ([2]; rats, threshold daily dose 100 mg/kg) was 2.1.

`COC[C@@H](NC(C)=O)C(=O)NCc1ccccc1` [Ex. 1, 2, (R)-N-Benzyl-2-Acetamide-3-methoxypropionamide] was tested, and the liver necrosis ([3]; 3.9 or 100 mg/kg daily) was “no evidence of causing liver necrosis” and the “liability for serious drug-drug interactions and liver toxicity (battery of liver enzyme studies)” value [3] was “relatively low”.

— patent USRE38551E1, “Anticonvulsant enantiomeric amino acid derivatives” (priority 1996, dated 2004)
